Experimental data as given in US10280149B2, “Therapeutic compounds and uses thereof” (GENENTECH, INC., priority 2015, dated 2019).

These molecules were tested against Full length KDM2B (Homo sapiens (Human), UniProt Q8NHM5) (assay: KDM2B TR-FRET assay for determining inhibitor IC50). Settings: TR-FRET (HTRF), biotin-H3K36me2 peptide substrate, 2-OG 0.3 μM or 6 μM.
Assay type: biochemical
From the text: KDM2B TR-FRET Assay for Determining Inhibitor IC50
The KDM2B TR-FRET Assay described above represents an additional embodiment of the invention.

Sequence of Full length KDM2B (Q8NHM5 whole entry): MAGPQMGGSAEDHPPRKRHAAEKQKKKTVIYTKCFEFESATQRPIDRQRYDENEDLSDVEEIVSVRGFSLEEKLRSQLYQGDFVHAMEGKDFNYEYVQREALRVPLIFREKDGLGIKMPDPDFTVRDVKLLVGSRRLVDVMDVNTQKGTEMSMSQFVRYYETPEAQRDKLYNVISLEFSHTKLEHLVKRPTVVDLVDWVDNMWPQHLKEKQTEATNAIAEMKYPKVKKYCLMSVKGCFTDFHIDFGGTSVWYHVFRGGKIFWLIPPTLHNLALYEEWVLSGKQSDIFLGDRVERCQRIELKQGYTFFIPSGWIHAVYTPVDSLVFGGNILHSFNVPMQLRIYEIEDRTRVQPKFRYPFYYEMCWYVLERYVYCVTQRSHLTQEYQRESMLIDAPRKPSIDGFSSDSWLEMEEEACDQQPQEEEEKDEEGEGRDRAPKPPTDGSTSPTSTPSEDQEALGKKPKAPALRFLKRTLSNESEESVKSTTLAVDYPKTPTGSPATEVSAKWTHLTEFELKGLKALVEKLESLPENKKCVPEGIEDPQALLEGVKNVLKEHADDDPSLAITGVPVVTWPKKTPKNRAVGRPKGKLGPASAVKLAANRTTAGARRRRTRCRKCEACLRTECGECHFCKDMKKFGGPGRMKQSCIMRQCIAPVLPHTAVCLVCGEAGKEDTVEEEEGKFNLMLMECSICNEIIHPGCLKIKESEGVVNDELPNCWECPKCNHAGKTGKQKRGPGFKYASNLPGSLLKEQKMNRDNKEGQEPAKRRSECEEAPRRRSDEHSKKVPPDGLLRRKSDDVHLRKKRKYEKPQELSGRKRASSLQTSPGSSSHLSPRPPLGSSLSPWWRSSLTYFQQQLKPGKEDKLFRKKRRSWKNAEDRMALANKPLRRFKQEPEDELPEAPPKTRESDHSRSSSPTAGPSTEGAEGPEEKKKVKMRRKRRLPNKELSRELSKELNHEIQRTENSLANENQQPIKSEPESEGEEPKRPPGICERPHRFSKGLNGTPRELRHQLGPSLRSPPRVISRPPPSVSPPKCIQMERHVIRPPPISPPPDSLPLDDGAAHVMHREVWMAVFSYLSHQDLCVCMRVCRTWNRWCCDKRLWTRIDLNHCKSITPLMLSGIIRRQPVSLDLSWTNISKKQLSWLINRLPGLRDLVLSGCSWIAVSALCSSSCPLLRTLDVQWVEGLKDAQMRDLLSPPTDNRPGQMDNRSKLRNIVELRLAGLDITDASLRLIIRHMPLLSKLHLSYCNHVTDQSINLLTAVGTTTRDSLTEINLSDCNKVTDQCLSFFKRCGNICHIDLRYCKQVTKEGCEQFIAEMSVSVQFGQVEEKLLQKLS

Compound	IC50 [µM]
CCC1CCN(C2CC2)CC1C(=O)c1ccc2cc(OC)ccc2c1 (single isomer, unassigned) [Example 147b, (1-cyclopropyl-4-ethylpiperidin-3-yl)(6-methoxynaphthalen-2-yl)methanone]	0.0049
CC1CCN(CC2CC2)CC1C(=O)c1ccc2c(O)cccc2c1 (single isomer, unassigned) [Example 151a, (1-(cyclopropylmethyl)-4-methylpiperidin-3-yl)(5-hydroxynaphthalen-2-yl)methanone]	0.315
CC1CCN(CC2CC2)CC1C(=O)c1ccc2c(O)cccc2c1 (single isomer, unassigned) [Example 151b, (1-(cyclopropylmethyl)-4-methylpiperidin-3-yl)(5-hydroxynaphthalen-2-yl)methanone]	0.0395
COc1cccc(C(=O)[C@@H]2CCCN(CC3CC3)C2)c1 (stereo in doubt) [Example 109a, (1-(cyclopropylmethyl)piperidin-3-yl)(3-methoxyphenyl)methanone]	14.1
COc1cccc(C(=O)[C@H]2CCCN(CC3CC3)C2)c1 (stereo in doubt) [Example 109b, (1-(cyclopropylmethyl)piperidin-3-yl)(3-methoxyphenyl)methanone]	1.3
COc1ccc(C(=O)[C@@H]2CCCN(CC3CC3)C2)cc1 (stereo in doubt) [Example 110b, (1-(cyclopropylmethyl)piperidin-3-yl)(4-methoxyphenyl)methanone]	5.3
COc1ccccc1C(=O)[C@@H]1CCCN(CC2CC2)C1 (stereo in doubt) [Example 111, (1-(cyclopropylmethyl)piperidin-3-yl)(2-methoxyphenyl)methanone]	3.1
O=C(c1ccc(Cl)cc1)[C@@H]1CCCN(CC2CC2)C1 (stereo in doubt) [Example 116a, (4-chlorophenyl)(1-(cyclopropylmethyl)piperidin-3-yl)methanone]	5.8
O=C(c1ccc(Cl)cc1)[C@H]1CCCN(CC2CC2)C1 (stereo in doubt) [Example 116b, (4-chlorophenyl)(1-(cyclopropylmethyl)piperidin-3-yl)methanone]	1.4
O=C(c1ccc2ccccc2n1)[C@@H]1CCCN(CC2CC2)C1 (stereo in doubt) [Example 117b, (1-(cyclopropylmethyl)piperidin-3-yl)(quinolin-2-yl)methanone]	0.75
O=C(c1cccc(Cl)c1)[C@@H]1CCCN(CC2CC2)C1 (stereo in doubt) [Example 118a, (3-chlorophenyl)(1-(cyclopropylmethyl)piperidin-3-yl)methanone]	6.8
O=C(c1cccc(Cl)c1)[C@H]1CCCN(CC2CC2)C1 (stereo in doubt) [Example 118b, (3-chlorophenyl)(1-(cyclopropylmethyl)piperidin-3-yl)methanone]	0.661
COc1ccc2cc(C(=O)[C@@]3(F)CCCN(CC4CC4)C3)ccc2c1 (stereo in doubt) [Example 157]	6.1
COc1ccc2cc(C(=O)[C@@]3(O)CCCN(CC4CC4)C3)ccc2c1 (stereo in doubt) [Example 158a, (1-(cyclopropylmethyl)-3-hydroxypiperidin-3-yl)(6-methoxynaphthalen-2-yl)methanone]	1.9
COc1ccc2cc(C(=O)[C@]3(O)CCCN(CC4CC4)C3)ccc2c1 (stereo in doubt) [Example 158b, (1-(cyclopropylmethyl)-3-hydroxypiperidin-3-yl)(6-methoxynaphthalen-2-yl)methanone]	11.5
C[C@H]1CCN(CC2CC2)C[C@@H]1C(=O)c1ccc2cc(C#N)ccc2c1 (stereo in doubt) [Example 160a, 6-(1-(cyclopropylmethyl)-4-methylpiperidine-3-carbonyl)-2-naphthonitrile]	1.7
C[C@@H]1CCN(CC2CC2)C[C@H]1C(=O)c1ccc2cc(C#N)ccc2c1 (stereo in doubt) [Example 160b, 6-(1-(cyclopropylmethyl)-4-methylpiperidine-3-carbonyl)-2-naphthonitrile]	0.113
C[C@H]1CCN(C2CCC2)C[C@@H]1C(=O)c1ccc2cc(C#N)ccc2c1 (stereo in doubt) [Example 161a, 6-(1-cyclobutyl-4-methylpiperidine-3-carbonyl)-2-naphthonitrile]	3
C[C@@H]1CCN(C2CCC2)C[C@H]1C(=O)c1ccc2cc(C#N)ccc2c1 (stereo in doubt) [Example 161b, 6-(1-cyclobutyl-4-methylpiperidine-3-carbonyl)-2-naphthonitrile]	0.0123

Compound	IC50 [µM]
C[C@@H]1CCN(C2CCCC2)C[C@H]1C(=O)c1ccc2cc(C#N)ccc2c1 (stereo in doubt) [Example 162b, 6-(1-cyclopentyl-4-methylpiperidine-3-carbonyl)-2-naphthonitrile]	0.0857
CCCN1CC[C@H](C)[C@@H](C(=O)c2ccc3cc(C#N)ccc3c2)C1 (stereo in doubt) [Example 163a, 6-(4-methyl-1-propylpiperidine-3-carbonyl)-2-naphthonitrile]	0.993
CCCN1CC[C@@H](C)[C@H](C(=O)c2ccc3cc(C#N)ccc3c2)C1 (stereo in doubt) [Example 163b, 6-(4-methyl-1-propylpiperidine-3-carbonyl)-2-naphthonitrile]	0.0454
COc1ccc2cc(C(=O)[C@H]3CCCN(C4CCC4)C3)ccc2c1CC#N (stereo in doubt) [Example 179a, 2-(6-(1-cyclobutylpiperidine-3-carbonyl)-2-methoxynaphthalen-1-yl)acetonitrile]	0.00565
COc1ccc2cc(C(=O)[C@@H]3CCCN(C4CCC4)C3)ccc2c1CC#N (stereo in doubt) [Example 179b, 2-(6-(1-cyclobutylpiperidine-3-carbonyl)-2-methoxynaphthalen-1-yl)acetonitrile]	0.361
CCCN1CC[C@@H](C)[C@@H](C(=O)c2ccc3c(CC#N)c(OC)ccc3c2)C1 (stereo in doubt) [Example 181a, 2-(2-methoxy-6-(4-methyl-1-propylpiperidine-3-carbonyl)naphthalen-1-yl)acetonitrile]	1.3
CCCN1CC[C@H](C)[C@H](C(=O)c2ccc3c(CC#N)c(OC)ccc3c2)C1 (stereo in doubt) [Example 181b, 2-(2-methoxy-6-(4-methyl-1-propylpiperidine-3-carbonyl)naphthalen-1-yl)acetonitrile]	0.0123
COc1ccc2cc(C(=O)[C@H]3CN(C4CCC4)CC[C@H]3C)ccc2c1CC#N (stereo in doubt) [Example 182a, 2-(6-(1-cyclobutyl-4-methylpiperidine-3-carbonyl)-2-methoxynaphthalen-1-yl)acetonitrile]	0.29
COc1ccc2cc(C(=O)[C@@H]3CN(C4CCC4)CC[C@@H]3C)ccc2c1CC#N (stereo in doubt) [Example 182b, 2-(6-(1-cyclobutyl-4-methylpiperidine-3-carbonyl)-2-methoxynaphthalen-1-yl)acetonitrile]	0.00112
CC[C@@H]1CCN(C2CCC2)C[C@H]1C(=O)c1ccc2c(CC#N)c(OC)ccc2c1 (stereo in doubt) [Example 183a, 2-(6-(1-cyclobutyl-4-ethylpiperidine-3-carbonyl)-2-methoxynaphthalen-1-yl)acetonitrile]	0.0552
CC[C@H]1CCN(C2CCC2)C[C@@H]1C(=O)c1ccc2c(CC#N)c(OC)ccc2c1 (stereo in doubt) [Example 183b, 2-(6-(1-cyclobutyl-4-ethylpiperidine-3-carbonyl)-2-methoxynaphthalen-1-yl)acetonitrile]	0.00206
CC[C@@H]1CCN(C2CCC2)C[C@@H]1C(=O)c1ccc2c(CC#N)c(OC)ccc2c1 (stereo in doubt) [Example 183c, 2-(6-(1-cyclobutyl-4-ethylpiperidine-3-carbonyl)-2-methoxynaphthalen-1-yl)acetonitrile]	0.078
CC[C@H]1CCN(C2CCC2)C[C@H]1C(=O)c1ccc2c(CC#N)c(OC)ccc2c1 (stereo in doubt) [Example 183d, 2-(6-(1-cyclobutyl-4-ethylpiperidine-3-carbonyl)-2-methoxynaphthalen-1-yl)acetonitrile]	0.00153
CCC[C@@H]1CCN(C2CCC2)C[C@@H]1C(=O)c1ccc2c(CC#N)c(OC)ccc2c1 (stereo in doubt) [Example 184a, 2-(6-(1-cyclobutyl-4-propylpiperidine-3-carbonyl)-2-methoxynaphthalen-1-yl)acetonitrile]	0.0774
CCC[C@H]1CCN(C2CCC2)C[C@H]1C(=O)c1ccc2c(CC#N)c(OC)ccc2c1 (stereo in doubt) [Example 184b, 2-(6-(1-cyclobutyl-4-propylpiperidine-3-carbonyl)-2-methoxynaphthalen-1-yl)acetonitrile]	0.00141
CCC[C@@H]1CCN(C2CCC2)C[C@H]1C(=O)c1ccc2c(CC#N)c(OC)ccc2c1 (stereo in doubt) [Example 184c, 2-(6-(1-cyclobutyl-4-propylpiperidine-3-carbonyl)-2-methoxynaphthalen-1-yl)acetonitrile]	0.00313
CCC[C@H]1CCN(C2CCC2)C[C@@H]1C(=O)c1ccc2c(CC#N)c(OC)ccc2c1 (stereo in doubt) [Example 184d, 2-(6-(1-cyclobutyl-4-propylpiperidine-3-carbonyl)-2-methoxynaphthalen-1-yl)acetonitrile]	0.263
COc1ccc2cc(C(=O)[C@@H]3CN(C4CCC4)CC[C@@H]3CC(C)C)ccc2c1CC#N (stereo in doubt) [Example 185a, 2-(6-(1-cyclobutyl-4-isobutylpiperidine-3-carbonyl)-2-methoxynaphthalen-1-yl)acetonitrile]	0.0535
COc1ccc2cc(C(=O)[C@H]3CN(C4CCC4)CC[C@H]3CC(C)C)ccc2c1CC#N (stereo in doubt) [Example 185b, 2-(6-(1-cyclobutyl-4-isobutylpiperidine-3-carbonyl)-2-methoxynaphthalen-1-yl)acetonitrile]	0.002
